8 compounds from ChEMBL document CHEMBL1159107, “Novel semisynthetic spin-labeled derivatives of podophyllotoxin with cytotoxic and antioxidative activity” (Bioorg Med Chem Lett, 2010) can be followed below.

Usually IC50 stands for the midpoint of a concentration-inhibition curve.

One assay deals with A549. Briefly: Cytotoxicity against human A549 cells after 48 hrs. Particulars: A549, 48 h. Type of assay: functional, cell-based.
The subject of a further assay is HL-60. Nature of the assay: Cytotoxicity against human HL60 cells after 48 hrs. Type of assay: functional, cell-based. Particulars: HL-60, 48 h.
Another assay has as its system RPMI-8226. Briefly: Cytotoxicity against human RPMI8226 cells after 48 hrs. Particulars: RPMI-8226, 48 h. Type of assay: functional, cell-based.
Another assay concerns Liver. Nature of the assay: Antioxidant activity in Sprague-Dawley rat liver assessed as inhibition of malonaldehyde. Type of assay: functional, tissue-based.
In the next assay the test system is Kidney. Nature of the assay: Antioxidant activity in Sprague-Dawley rat kidney assessed as inhibition of malonaldehyde. Format: functional, tissue-based.
In a further assay the test system is Heart. Briefly: Antioxidant activity in Sprague-Dawley rat heart assessed as inhibition of malonaldehyde. Type of assay: functional, tissue-based.

Take `COc1cc([C@@H]2c3cc4c(cc3[C@@H](NC(=O)[C@H](CCSC)NC(=O)OC3CC(C)(C)N([O])C(C)(C)C3)[C@H]3COC(=O)[C@H]23)OCO4)cc(OC)c1O`: the IC50 in the assay with A549 came to 420 nM; in the assay on HL-60, 670 nM; in the assay on RPMI-8226, 480 nM; in the assay with Liver, 6850 nM; in the assay with Kidney it was 7550 nM; with Heart, 5890 nM.

As to `COc1cc([C@@H]2c3cc4c(cc3[C@@H](NC(=O)[C@H](CC(C)C)NC(=O)OC3CC(C)(C)N([O])C(C)(C)C3)[C@H]3COC(=O)[C@H]23)OCO4)cc(OC)c1O`, the half-inhibitory concentration (IC50) in the assay with A549 came out at 190 nM; with HL-60, 160 nM; in the assay on RPMI-8226, 89 nM; in the assay on Liver, 8850 nM; with Kidney it was 8470 nM.

As to `COc1cc([C@@H]2c3cc4c(cc3[C@@H](NC(=O)[C@@H](NC(=O)OC3CC(C)(C)N([O])C(C)(C)C3)C(C)O)[C@H]3COC(=O)[C@H]23)OCO4)cc(OC)c1O` (some centres not stated), the IC50 in the assay with A549 was 210 nM; in the assay on HL-60, 210 nM; with RPMI-8226, 78 nM; with Liver, 7120 nM; with Kidney, 7450 nM; in the assay with Heart, 8790 nM.

Regarding `COc1cc([C@@H]2c3cc4c(cc3[C@@H](NC(=O)[C@H](C)NC(=O)OC3CC(C)(C)N([O])C(C)(C)C3)[C@H]3COC(=O)[C@H]23)OCO4)cc(OC)c1O`, the IC50 in the assay on A549 came out at 120 nM; in the assay on HL-60 it was 220 nM; with RPMI-8226, 260 nM; in the assay with Liver, 7640 nM; in the assay with Kidney, 7680 nM; with Heart, 6390 nM.

In the case of `COc1cc([C@@H]2c3cc4c(cc3[C@@H](NC(=O)CNC(=O)OC3CC(C)(C)N([O])C(C)(C)C3)[C@H]3COC(=O)[C@H]23)OCO4)cc(OC)c1O`, the IC50 in the assay on A549 turned out to be 210 nM; in the assay on HL-60, 320 nM; with RPMI-8226, 330 nM; in the assay with Liver it was 7470 nM; in the assay on Kidney it was 8900 nM; in the assay on Heart, 7190 nM.

Turning to `COc1cc([C@@H]2c3cc4c(cc3[C@@H](NC(=O)[C@@H](NC(=O)OC3CC(C)(C)N([O])C(C)(C)C3)C(C)C)[C@H]3COC(=O)[C@H]23)OCO4)cc(OC)c1O`, the half-maximal inhibitory concentration (IC50) with A549 was 150 nM; in the assay with HL-60, 240 nM; with RPMI-8226, 61 nM; with Liver, 8690 nM; with Kidney, 8880 nM; in the assay on Heart, 8040 nM.

Take `COc1cc([C@@H]2c3cc4c(cc3[C@@H](NC(=O)[C@H](Cc3ccccc3)NC(=O)OC3CC(C)(C)N([O])C(C)(C)C3)[C@H]3COC(=O)[C@H]23)OCO4)cc(OC)c1O`: the IC50 in the assay with A549 was found to be 210 nM; in the assay on HL-60, 210 nM; in the assay on RPMI-8226 it was 90 nM; in the assay with Liver, 6550 nM; in the assay with Kidney, 9630 nM; in the assay with Heart it was 7390 nM.

Turning to `COc1cc([C@@H]2c3cc4c(cc3[C@@H](O[C@@H]3O[C@@H]5CO[C@@H](C)O[C@H]5[C@H](O)[C@H]3O)[C@H]3COC(=O)[C@H]23)OCO4)cc(OC)c1O` [ETOPOSIDE], the IC50 with A549 was found to be 290 nM; with HL-60, 420 nM; with RPMI-8226, 140 nM; in the assay on Liver, 43900 nM; in the assay on Kidney, 23800 nM; in the assay with Heart, 40700 nM.
